From patent US6841560B2, “Substituted isoquinoline derivatives and their use as anticonvulsants” (SmithKline Beecham p.l.c., priority 1997, dated 2005)

Tested on: electrically-induced seizures in mice
Experiment: Maximal electroshock seizure (MEST) threshold test, mouse model
Type: in vivo
Conditions: 10 mg/kg oral, suspension in methyl cellulose, one hour post dosing
Description: (§1) The maximal electroshock seizure (MEST) threshold test in rodents is particularly sensitive for detecting potential anticonvulsant properties^1. In this model, anticonvulsant agents elevate the threshold to electrically-induced seizures whilst proconvulsants lower the seizure threshold.
Mice (naive male, Charles River, U.K. CD1 strain, 25-30 g) are randomly assigned to groups of 10-20 and dosed orally or intraperitoneally at a dose volume of 10 ml/kg with various doses of compound (0.3-300 mg/kg) or vehicle. Mice are then subjected at 30 or 60 min post dose to a single electroshock (0.1 sec, 50 Hz, sine wave form) administered via corneal electrodes. The mean current and standard error required to induce a tonic seizure in 50% (CC50) of the mice in a particular treatment group is determined by the ‘up and down’ method of Dixon and Mood (1948)^2. Statistical comparisons between vehicle- and drug-treated groups are made using the method of Litchfield and Wilcoxon (1949)^3.
In control animals the CC50 is usually 14-18 mA. […] If a tonic convulsion does occur, then the current is decreased, and so on until all the animals in the group have been tested.
Studies are carried out using a Hugo Sachs Electronik Constant Current Shock Generator with totally variable control of shock level from 0 to 300 mA and steps of 2 mA are usually used.

| Compound | increase in seizure threshold [%] |
| --- | --- |
| CN1CCc2ccc(NC(=O)c3ccc(C(C)(C)C)cc3)cc2C1 [Example 5, N-(2-Methyl-1,2,3,4-tetrahydroisoquinolin-7-yl)-4-t-butylbenzamide] | 36 |
| CC(C)Oc1ccc(C(=O)Nc2ccc3c(c2)CN(C)CC3)cc1 [Example 6, N-(2-Methyl-1,2,3,4-tetrahydroisoquinolin-7-yl)-4-iso-propoxybenzamide] | 90 |
| CN1CCc2ccc(NC(=O)c3ccc(Oc4ccccc4)cc3)cc2C1 [Example 7, N-(2-Methyl-1,2,3,4-tetrahydroisoquinolin-7-yl)-4-phenoxybenzamide] | 23 |
| CN1CCc2ccc(NC(=O)c3cccc(Cl)c3)cc2C1 [Example 4, N-(2-Methyl-1,2,3,4-tetrahydroisoquinolin-7-yl)-3-chlorobenzamide] | 24 |

Tested on: maximal (tonic hindlimb extension) electroshock seizures in male rats
Experiment: Maximal electroshock seizure (MEST) threshold test, rat model
Type: in vivo
Conditions: 2 mg/kg p.o. at 2 h, suspended in 1% methyl cellulose
Description: as §1
The threshold for maximal (tonic hindlimb extension) electroshock seizures in male rats (Sprague Dawley, 80-150 g, 6 weeks old) was determined by a Hugo Sachs Electronik stimulator which delivered a constant current (0.3 sec duration, from 1-300 mA in steps of 5-20 mA). The procedure is similar to that outlined above for mouse and full details are as published by Upton et al,.^4
The percentage increase or decrease in CC50 for each group compared to the control is calculated.
Drugs are suspended in 1% methyl cellulose.

| Compound | increase in CC50 (seizure threshold) compared to control [%] |
| --- | --- |
| CC(C)Oc1ccc(C(=O)Nc2ccc3c(c2)CN(C)CC3)cc1Cl [Example 48, N-(2-Methyl-1,2,3,4-tetrahydroisoquinolin-7-yl)-3-chloro-4-iso-propoxybenzamide] | 389 |
| CC(C)c1ccc(C(=O)Nc2ccc3c(c2)CN(C)CC3)cc1C#N.Cl [Example 67, N-(2-Methyl-1,2,3,4-tetrahydroisoquinolin-7-yl)-3-cyano-4-iso-propylbenzamide, hydrochloride] | 303 |
| COc1ccc(C(=O)Nc2ccc3c(c2)CN(C)CC3)cc1C(F)(F)F [Example 51, N-(2-Methyl-1,2,3,4-tetrahydroisoquinolin-7-yl)-4-methoxy-3-trifluoromethylbenzamide] | 545 |
| CCOc1ccc(C(=O)Nc2ccc3c(c2)CN(C)CC3)cc1Br [Example 49, N-(2-Methyl-1,2,3,4-tetrahydroisoquinolin-7-yl)-3-bromo-4-ethoxybenzamide] | 325 |

Tested on: not given
Experiment: not given
Conditions: not given

| melting point [°C] | Compound |
| --- | --- |
| 153 to 155 | O=C(Nc1ccc2c(c1)CNCC2)c1ccc(Cl)s1.O=C(O)C(F)(F)F [Example 1, N-(1,2,3,4-Tetrahydroisoquinolin-7-yl)-5-chlorothiophene-2-carboxamide, monotrifluoroacetate] |
| 197 to 201 | CN1CCc2ccc(NC(=O)c3cccc(C(=O)C(C)(C)C)c3)cc2C1.Cl |
